Values quoted from earlier work as cited in patent publication US20100297232A1, “ONDANSETRON FILM COMPOSITIONS” (MonoSol Rx, LLC, priority 2009, published 2010).
Where two headings read alike, the source gives them in different places.

solubility (pH 1.2 and below): soluble
solubility (pH 8): practically insoluble
Structure (SMILES): Cc1nccn1CC1CCc2c(c3ccccc3n2C)C1=O (centres unmarked) [ondansetron base, ondansetron]
